From ChEMBL document CHEMBL1201862, “PubChem BioAssay data set” (2004)
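Growth conditions: 96-well plates. Treatment: test compound, 48 hours, 5 concentrations. Analysis: linear interpolation between bracketing concentrations; unreached endpoints set to highest concentration. Here, GI50 denotes the concentration required for 50% inhibition of growth.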 The source made the active and inactive calls. Rule as the data show it: active = GI50 up to about 1.1 µM and inactive = higher.

Assays:
Assay in all cases: inhibition of tumour cell growth, NCI panel, 48 h
[1] = tested on: OVCAR-8
[2] = tested on: Hs-578T
[3] = tested on: HT-29
[4] = tested on: SNB-19
[5] = tested on: MDA-MB-435
[6] = tested on: A549
[7] = tested on: M14
[8] = tested on: COLO 205
[9] = tested on: Malme-3M
[10] = tested on: RPMI-8226
[11] = tested on: SF-295
[12] = tested on: T47D
[13] = tested on: NCI-H23
[14] = tested on: CCRF-CEM
[15] = tested on: KM12
[16] = tested on: HOP-62
[17] = tested on: SK-MEL-28
[18] = tested on: OVCAR-5
[19] = tested on: SF-268
[20] = tested on: HCT-15
[21] = tested on: TK-10
[22] = tested on: HL-60
[23] = tested on: MOLT-4
[24] = tested on: NCI-H226
[25] = tested on: IGROV-1
[26] = tested on: NCI-H460
[27] = tested on: OVCAR-3
[28] = tested on: ACHN
[29] = tested on: CAKI-1
[30] = tested on: UACC-257
[31] = tested on: SF-539
[32] = tested on: EKVX
[33] = tested on: UACC-62
[34] = tested on: SK-OV-3
[35] = tested on: SN12C
[36] = tested on: SW-620
[37] = tested on: U-251
[38] = tested on: HCC 2998
[39] = tested on: SNB-75
[40] = tested on: NCI/ADR-RES
[41] = tested on: HCT-116
[42] = tested on: 786-0
[43] = tested on: NCI-H522
[44] = tested on: LOX IMVI
[45] = tested on: MDA-MB-231
[46] = tested on: MDA-N
[47] = tested on: PC-3
[48] = tested on: A498
[49] = tested on: SK-MEL-5
[50] = tested on: OVCAR-4
[51] = tested on: SK-MEL-2
[52] = tested on: DU-145
[53] = tested on: HOP-92
[54] = tested on: MCF7
[55] = tested on: BT-549
[56] = tested on: UO-31
[57] = tested on: RXF 393
[58] = tested on: K562
[59] = tested on: SR

SMILES: CSc1nc(Br)nc2c1ncn2C1CC(Oc2ccc(C)cc2)C(COc2ccc(C)cc2)O1 (configuration not stated)
- GI50 [1]: > 100 µM (inactive)
- GI50 [2]: 25.2 µM (inactive)
- GI50 [3]: > 100 µM (inactive)
- GI50 [4]: 22.5 µM (inactive)
- GI50 [5]: > 100 µM (inactive)
- GI50 [6]: > 100 µM (inactive)
- GI50 [7]: > 100 µM (inactive)
- GI50 [8]: > 100 µM (inactive)
- GI50 [9]: > 100 µM (inactive)
- GI50 [10]: 93.8 µM (inactive)
- GI50 [11]: > 100 µM (inactive)
- GI50 [12]: > 100 µM (inactive)
- GI50 [13]: 40.8 µM (inactive)
- GI50 [14]: > 100 µM (inactive)
- GI50 [15]: > 100 µM (inactive)
- GI50 [16]: > 100 µM (inactive)
- GI50 [17]: > 100 µM (inactive)
- GI50 [18]: > 100 µM (inactive)
- GI50 [19]: > 100 µM (inactive)
- GI50 [20]: > 100 µM
- GI50 [21]: > 100 µM (inactive)
- GI50 [22]: > 100 µM (inactive)
- GI50 [23]: > 100 µM (inactive)
- GI50 [24]: > 100 µM (inactive)
- GI50 [25]: > 100 µM (inactive)
- GI50 [26]: > 100 µM (inactive)
- GI50 [27]: > 100 µM (inactive)
- GI50 [28]: 33.7 µM (inactive)
- GI50 [29]: > 100 µM (inactive)
- GI50 [30]: > 100 µM (inactive)
- GI50 [31]: > 100 µM (inactive)
- GI50 [32]: > 100 µM (inactive)
- GI50 [33]: > 100 µM (inactive)
- GI50 [34]: > 100 µM (inactive)
- GI50 [35]: > 100 µM (inactive)
- GI50 [36]: > 100 µM (inactive)
- GI50 [37]: > 100 µM (inactive)
- GI50 [38]: > 100 µM (inactive)
- GI50 [39]: 23.3 µM (inactive)
- GI50 [40]: > 100 µM (inactive)
- GI50 [41]: > 100 µM (inactive)
- GI50 [42]: > 100 µM (inactive)
- GI50 [43]: > 100 µM (inactive)
- GI50 [44]: > 100 µM (inactive)
- GI50 [45]: 61.2 µM (inactive)
- GI50 [46]: > 100 µM (inactive)
- GI50 [47]: > 100 µM (inactive)
- GI50 [48]: > 100 µM (inactive)
- GI50 [49]: > 100 µM (inactive)
- GI50 [50]: 83 µM (inactive)
- GI50 [51]: > 100 µM (inactive)
- GI50 [52]: > 100 µM (inactive)
- GI50 [53]: > 100 µM (inactive)
- GI50 [54]: > 100 µM (inactive)
- GI50 [55]: > 100 µM (inactive)

SMILES: COc1c(-c2ccc3c(c2)OCO3)oc2cc3c(c(OC)c2c1=O)OCO3 [MELITERNATIN]
- GI50 [1]: 19.1 µM (inactive)
- GI50 [2]: 31.1 µM (inactive)
- GI50 [3]: 23.3 µM (inactive)
- GI50 [56]: 23 µM (inactive)
- GI50 [4]: 18.4 µM (inactive)
- GI50 [5]: 17.6 µM (inactive)
- GI50 [6]: 20.2 µM (inactive)
- GI50 [7]: 26.2 µM (inactive)
- GI50 [8]: 23.1 µM (inactive)
- GI50 [9]: 24.8 µM (inactive)
- GI50 [11]: 22.6 µM (inactive)
- GI50 [12]: 16.2 µM (inactive)
- GI50 [13]: 22.8 µM (inactive)
- GI50 [14]: 30.8 µM (inactive)
- GI50 [15]: 25.5 µM (inactive)
- GI50 [16]: 15.4 µM (inactive)
- GI50 [17]: 38.1 µM (inactive)
- GI50 [18]: 29.8 µM (inactive)
- GI50 [19]: 14.2 µM (inactive)
- GI50 [20]: 30.8 µM
- GI50 [21]: 25.5 µM (inactive)
- GI50 [22]: 1.09 µM (active)
- GI50 [23]: > 100 µM (inactive)
- GI50 [24]: 18.7 µM (inactive)
- GI50 [25]: 18.7 µM (inactive)
- GI50 [26]: 14.4 µM (inactive)
- GI50 [27]: 22.4 µM (inactive)
- GI50 [28]: 22.3 µM (inactive)
- GI50 [29]: 23.8 µM (inactive)
- GI50 [57]: 28.5 µM (inactive)
- GI50 [30]: 38.5 µM (inactive)
- GI50 [31]: 16.3 µM (inactive)
- GI50 [32]: 24.5 µM (inactive)
- GI50 [33]: 23.9 µM (inactive)
- GI50 [34]: 18.3 µM (inactive)
- GI50 [58]: 23.8 µM (inactive)
- GI50 [35]: 16 µM (inactive)
- GI50 [36]: 25.1 µM (inactive)
- GI50 [37]: 16.6 µM (inactive)
- GI50 [38]: 26.9 µM (inactive)
- GI50 [39]: 16.3 µM (inactive)
- GI50 [40]: 27.6 µM (inactive)
- GI50 [41]: 16.2 µM (inactive)
- GI50 [42]: 48.2 µM (inactive)
- GI50 [43]: 21.5 µM (inactive)
- GI50 [44]: 11.6 µM (inactive)
- GI50 [45]: 43 µM (inactive)
- GI50 [46]: 18.5 µM (inactive)
- GI50 [47]: 21.1 µM (inactive)
- GI50 [48]: 23.5 µM (inactive)
- GI50 [49]: 18.4 µM (inactive)
- GI50 [50]: 24.2 µM (inactive)
- GI50 [51]: 19.6 µM (inactive)
- GI50 [52]: 30.5 µM (inactive)
- GI50 [53]: 15.3 µM (inactive)
- GI50 [54]: 18.4 µM (inactive)
- GI50 [55]: 12.8 µM (inactive)

SMILES: CCN(CC(COc1ccc2c(c1)[n+]([O-])nc(N)[n+]2[O-])OC(C)=O)C(C)=O (configuration not stated)
- GI50 [1]: 42.1 µM (inactive)
- GI50 [2]: 51.3 µM (inactive)
- GI50 [3]: > 100 µM (inactive)
- GI50 [56]: 72.3 µM (inactive)
- GI50 [4]: > 100 µM (inactive)
- GI50 [5]: 90.4 µM (inactive)
- GI50 [6]: 68.2 µM (inactive)
- GI50 [7]: 89.3 µM (inactive)
- GI50 [8]: 32.2 µM (inactive)
- GI50 [10]: > 100 µM (inactive)
- GI50 [11]: > 100 µM (inactive)
- GI50 [59]: > 100 µM (inactive)
- GI50 [12]: 33.9 µM (inactive)
- GI50 [13]: 49.5 µM (inactive)
- GI50 [14]: 48.2 µM (inactive)
- GI50 [15]: 95.5 µM (inactive)
- GI50 [16]: 45.9 µM (inactive)
- GI50 [17]: > 100 µM (inactive)
- GI50 [18]: > 100 µM (inactive)
- GI50 [19]: 56 µM (inactive)
- GI50 [20]: > 100 µM
- GI50 [21]: > 100 µM (inactive)
- GI50 [22]: 80.4 µM (inactive)
- GI50 [23]: 20.8 µM (inactive)
- GI50 [24]: > 100 µM (inactive)
- GI50 [25]: 29.1 µM (inactive)
- GI50 [26]: > 10 µM (inactive)
- GI50 [27]: 76.2 µM (inactive)
- GI50 [28]: > 100 µM (inactive)
- GI50 [29]: > 100 µM (inactive)
- GI50 [30]: 76.7 µM (inactive)
- GI50 [31]: > 100 µM (inactive)
- GI50 [32]: 52.2 µM (inactive)
- GI50 [33]: 29.6 µM (inactive)
- GI50 [34]: 15.2 µM (inactive)
- GI50 [58]: 14.1 µM (inactive)
- GI50 [35]: > 100 µM (inactive)
- GI50 [36]: > 100 µM (inactive)
- GI50 [37]: > 100 µM (inactive)
- GI50 [39]: 35.8 µM (inactive)
- GI50 [40]: > 100 µM (inactive)
- GI50 [41]: 78.7 µM (inactive)
- GI50 [42]: 93.1 µM (inactive)
- GI50 [43]: 16.4 µM (inactive)
- GI50 [44]: 58.3 µM (inactive)
- GI50 [45]: > 100 µM (inactive)
- GI50 [46]: 85.7 µM (inactive)
- GI50 [47]: 76.9 µM (inactive)
- GI50 [48]: 25.9 µM (inactive)
- GI50 [49]: 32 µM (inactive)
- GI50 [50]: 50.5 µM (inactive)
- GI50 [51]: > 100 µM (inactive)
- GI50 [52]: > 10 µM (inactive)
- GI50 [54]: > 100 µM (inactive)
- GI50 [55]: > 100 µM (inactive)
